For one data set, the target named is T1, His-PPARγ LBD (Homo sapiens, UniProt P37231).
T1 sequence (P37231 203-477 isoform P37231-2): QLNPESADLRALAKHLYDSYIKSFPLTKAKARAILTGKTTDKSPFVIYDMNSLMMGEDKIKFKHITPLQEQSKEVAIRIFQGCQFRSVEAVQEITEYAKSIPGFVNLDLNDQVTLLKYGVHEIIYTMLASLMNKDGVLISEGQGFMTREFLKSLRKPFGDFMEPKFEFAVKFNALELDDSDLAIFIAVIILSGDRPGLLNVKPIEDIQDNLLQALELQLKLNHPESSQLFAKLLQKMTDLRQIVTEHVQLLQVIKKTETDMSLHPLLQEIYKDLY
The class given is biochemical. The conditions noted are these: TRAP220 coactivator peptide.

In a further data set the target is T2, full-length PPARγ (Homo sapiens, UniProt P37231).
T2 sequence (P37231 1-505): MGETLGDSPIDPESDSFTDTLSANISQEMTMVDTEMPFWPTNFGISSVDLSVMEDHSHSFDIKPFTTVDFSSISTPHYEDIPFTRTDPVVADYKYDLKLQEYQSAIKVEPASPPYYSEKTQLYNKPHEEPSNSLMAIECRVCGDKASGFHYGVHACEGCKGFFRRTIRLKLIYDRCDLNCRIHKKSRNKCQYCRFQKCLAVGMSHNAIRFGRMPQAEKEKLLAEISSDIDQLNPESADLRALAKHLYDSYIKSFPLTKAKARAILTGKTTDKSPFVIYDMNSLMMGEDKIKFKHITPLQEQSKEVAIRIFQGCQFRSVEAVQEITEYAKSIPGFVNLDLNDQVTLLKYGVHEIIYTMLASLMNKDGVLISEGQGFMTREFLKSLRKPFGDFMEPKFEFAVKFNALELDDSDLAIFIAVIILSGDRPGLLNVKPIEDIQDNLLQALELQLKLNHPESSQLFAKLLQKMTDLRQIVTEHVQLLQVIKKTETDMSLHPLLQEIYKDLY
Description: Full-length PPARγ/5xPPRE-luciferase reporter assay in HEK293T cells. The data set is classed as cell-based. The note with it: covalent analog ± 5 μM MRL20.

The conditions of data set [1]: limited use of MRL20 concentrations to 30 μM in assays; cited from earlier work.

As to `COc1ccc2nccc(NC(=O)c3cc([N+](=O)[O-])ccc3Cl)c2c1` [compound 22], the “Effect of covalent antagonist on binding of DHA to PPARγ” value on His-PPARγ LBD (DHA dose response and 30 μM endpoint) was “reduced binding of DHA to PPARγ better than GW9662 and T0070907”. Also, on full-length PPARγ, the “Inhibition of allosteric activation of full-length PPARγ by MRL20” value is recorded as “inhibition of allosteric PPARγ activation”. With `O=C(Nc1ccccc1)c1cc([N+](=O)[O-])ccc1Cl` [GW9662], the “TR-FRET response to rosiglitazone with covalent antagonist-bound PPARγ LBD” value on His-PPARγ LBD (rosiglitazone titration, endpoint 300 μM) is listed as “lower but not blocked”. Consider `COc1ccc(C(=O)n2c(C)c(Cc3ccccc3O[C@@H](C)C(=O)O)c3cc(OC(F)(F)F)ccc32)cc1` [MRL20], for which the Solubility entry in data set [1] was “solubility issues”.

These data come from PMC5652320 (ACS chemical biology, 2017).
